Data as given in patent US20160113905A1, “Polymer composition and polymer material” (INDUSTRIAL TECHNOLOGY RESEARCH INSTITUTE, priority 2012, published 2016).
pIC50: −log10 of the molar value. “And” between values parts separate entries of the source, which are not always exact repeats. Equal values may be shown once.

Each compound was assayed against T1, matrix metalloproteinase-9 (Homo sapiens, UniProt P14780) (assay: Inhibition test of matrix metalloproteinase-9 activity (fluorogenic substrate, activated pro-MMP-9)).
T1 sequence (P14780 107-707 limits assumed, species assumed): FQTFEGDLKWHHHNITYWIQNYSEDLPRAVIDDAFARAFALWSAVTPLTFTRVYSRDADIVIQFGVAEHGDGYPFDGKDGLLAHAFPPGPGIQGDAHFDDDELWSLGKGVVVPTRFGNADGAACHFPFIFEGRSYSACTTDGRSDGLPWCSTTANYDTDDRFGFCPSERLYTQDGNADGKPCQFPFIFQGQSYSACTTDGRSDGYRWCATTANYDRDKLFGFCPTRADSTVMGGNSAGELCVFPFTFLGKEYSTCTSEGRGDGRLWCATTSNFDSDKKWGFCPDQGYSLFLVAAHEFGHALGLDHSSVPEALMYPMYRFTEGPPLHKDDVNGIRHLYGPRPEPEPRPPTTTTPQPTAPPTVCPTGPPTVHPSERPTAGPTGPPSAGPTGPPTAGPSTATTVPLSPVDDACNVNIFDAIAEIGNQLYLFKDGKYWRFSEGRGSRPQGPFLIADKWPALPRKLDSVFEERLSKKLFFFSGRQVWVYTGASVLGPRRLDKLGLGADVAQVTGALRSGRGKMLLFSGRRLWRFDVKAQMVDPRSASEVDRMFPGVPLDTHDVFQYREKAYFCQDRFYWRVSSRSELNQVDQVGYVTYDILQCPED
Protocol: Step 1: Activation of Pro-Matrix Metalloproteinase-9
100 nM APMA (final concentration 1 M) as added to a 10 μg/ml of pro-matrix metalloproteinase-9 solution (R&D), and reacted in a 37° C. incubator for 2 hours to convert pro matrix metalloproteinase-9 to activated pro-matrix metalloproteinase-9
The activated pro-matrix metalloproteinase-9 was diluted with matrix metalloproteinase-9 activity analysis buffer (50 mM Tris, 10 mM CaCl2, 150 mM NaCl, 0.05% Brij-35(w/v), pH 7.5) to a concentration of 10 ng/ml. Activated pro-matrix metalloproteinase-9 was added to each test sample and placed in a 37° C. incubator for reaction for 2 or 24 hours. The negative control group contained no activated pro-matrix metalloproteinase-9 solution to test the response of the sample, and positive control added metalloproteinase-9 activity inhibitor, 1,10-Phenanthroline (1,10-PT) (final concentration: 0.1 mM), to the activated pro-matrix metalloproteinase-9 solution.
Step 3: Analysis for Matrix Metalloproteinase-9
The activated pro-matrix metalloproteinase-9 solution after being reacted with the material was taken in a 96-well black plate. Equal volume of substrate for matrix metalloproteinase-9 was added to the 96-well black plate and reacted in a 37° C. incubator for 0.5-1 hour, and then the fluorescence (Ex/Em=320/405 nm) of the reaction was determined by a high sensitivity fluorescence reader (Flexstation3).

Row | Compound | pIC50
1 | CC(C)(C)OC(=O)N[C@@H](Cc1c[nH]cn1)C(=O)O [BocHis, Boc-histidine, reference compound] | 1.99

What follows are compounds tested against T1, matrix metalloproteinase-9 (assay: not given).

Row | Compound | inhibition
2 | histidine grafted-poly(ethylene vinyl-co-alcohol) derivative [EVOH-g-BocHis] | 26.2% and 22.9%

Biological target: T1, matrix metalloproteinase-9
Test: not given
Remark: another data set of the same source

Row | Compound | inhibition
3 | CC(C)(C)OC(=O)N[C@@H](Cc1c[nH]cn1)C(=O)O [BocHis, Boc-histidine, reference compound] | 76.8%
4 | histidine grafted-hydroxypropyl methylcellulose derivative [Lot 5] | 33.2%
5 | histidine grafted-hydroxypropyl methylcellulose derivative [Lot 6] | 42.4% and 37.3%
6 | histidine grafted-hydroxypropyl methylcellulose derivative [Lot 7] | 36.4%
7 | histidine grafted-poly(ethylene vinyl-co-alcohol) derivative [Lot 3] | 43.7%
8 | histidine grafted-poly(ethylene vinyl-co-alcohol) derivative [Lot 4] | 38.2%
9 | histidine grafted-polyvinyl alcohol derivative [Lot 2] | 41%
